For this assay, the system named is P388 leukemia ip, CD2F1 mice, survival T/C. Nature of the assay: NCI In Vivo Anticancer Drug Screen. Data for tumor model P388 Leukemia (intraperitoneal) in CD2F1 (CDF1) mice. Conditions: endpoint: median survival time, higher = longer survival. The method in brief: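 Mice carrying the transplanted tumor received test compound or vehicle. Survival was recorded in each group, and the value is the treated-group measurement divided by that of the vehicle-treated control group.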

The mark [1] stands for this setting: dose: 50.0 mg/kg/injection, schedule: Q01DX005 (ip), vehicle: saline with Tween-80.
The mark [2] stands for this setting: dose: 100.0 mg/kg/injection, schedule: Q01DX005 (ip), vehicle: saline with Tween-80.
Where [3] appears, read: dose: 200.0 mg/kg/injection, schedule: Q01DX005 (ip), vehicle: saline with Tween-80.
The mark [4] stands for this setting: dose: 50.0 mg/kg/injection, schedule: Q01DX009 (ip), vehicle: saline.
Setting [5] is: dose: 100.0 mg/kg/injection, schedule: Q01DX009 (ip), vehicle: saline.

“And” between values parts separate entries of the source, which are not always exact repeats. Equal values may be shown once. Inconclusive results and toxic doses are left out.

`O=[N+]([O-])c1ccc(O)c(CN2CCC(O)(c3ccccc3)CC2)c1`: the T/C is 108 % of control (dose: 100.0 mg/kg/injection, schedule: Q04DX003 (ip), vehicle: Klucel (hydroxypropylcellulose) (HPC)); 99 % of control (dose: 200.0 mg/kg/injection, schedule: Q04DX003 (ip), vehicle: Klucel (hydroxypropylcellulose) (HPC)); 107 % of control (dose: 400.0 mg/kg/injection, schedule: Q04DX003 (ip), vehicle: Klucel (hydroxypropylcellulose) (HPC)).
`CN(C)c1ccc2c(Oc3ccccc3)cc(N)nc2c1`: the T/C was 94 % of control under setting [1], 92 % of control under setting [2] and 92 % of control under setting [3].
As for `CO/C=C1\OC(=O)C=C1OC`, the T/C is 101 % of control under setting [1], 108 % of control under setting [2] and 114 % of control under setting [3].
Regarding `O=C(Nc1ccccc1)/C(Cl)=C(/Cl)C(=O)C(Cl)(Cl)Cl`, the T/C is, setting by setting: (dose: 12.5 mg/kg/injection, schedule: Q01DX009 (ip), vehicle: distilled water + Tween-80) 103 % of control; (dose: 25.0 mg/kg/injection, schedule: Q01DX009 (ip), vehicle: distilled water + Tween-80) 103 % of control.
`CC1(c2ccccc2)C(=O)c2ccccc2N1O` (centres undefined): the T/C was 98 % of control (dose: 50.0 mg/kg/injection, schedule: Q04DX002 (ip), vehicle: saline); 100 % of control (dose: 100.0 mg/kg/injection, schedule: Q04DX002 (ip), vehicle: saline); 101 % of control (dose: 200.0 mg/kg/injection, schedule: Q04DX002 (ip), vehicle: saline).
Turning to `CC(C)=CCCC(C)(OC1OC(COC2OCC(O)C(O)C2O)C(O)C(O)C1O)C1CCC2(C)C1C(O)CC1C3(C)CCC(OC4OC(CO)C(O)C(O)C4OC4OC(CO)C(O)C(O)C4O)C(C)(C)C3CCC12C` (centres undefined), the T/C runs as follows: (dose: 18.75 mg/kg/injection, schedule: Q01DX009 (ip), vehicle: Klucel (hydroxypropylcellulose) (HPC)) 98 % of control; (dose: 37.5 mg/kg/injection, schedule: Q01DX009 (ip), vehicle: Klucel (hydroxypropylcellulose) (HPC)) 100 % of control; (dose: 75.0 mg/kg/injection, schedule: Q01DX009 (ip), vehicle: Klucel (hydroxypropylcellulose) (HPC)) 92 % of control; (dose: 150.0 mg/kg/injection, schedule: Q01DX009 (ip), vehicle: Klucel (hydroxypropylcellulose) (HPC)) 92 % of control.
Turning to `CCCOC1=NC2=NC(OCCC)=NC3=C(Br)C=C(Br)C(=N1)N23`, the T/C runs as follows: (dose: 50.0 mg/kg/injection, schedule: Q01DX005 (ip), vehicle: Klucel (hydroxypropylcellulose) (HPC)) 95 % of control; (dose: 100.0 mg/kg/injection, schedule: Q01DX005 (ip), vehicle: Klucel (hydroxypropylcellulose) (HPC)) 94 % of control; (dose: 200.0 mg/kg/injection, schedule: Q01DX005 (ip), vehicle: Klucel (hydroxypropylcellulose) (HPC)) 91 % of control.
Take `[N-]=[N+]=NC(=O)c1cnn(Cc2ccccc2)c1N`: the T/C (dose: 100.0 mg/kg/injection, schedule: Q01DX001 (ip), vehicle: saline with Tween-80) was 103 % of control and the T/C (dose: 200.0 mg/kg/injection, schedule: Q01DX001 (ip), vehicle: saline with Tween-80) is 101 % of control.
`Cc1cc(C)c2cc(=O)oc-2c(C)c1`: the T/C by setting is: (dose: 100.0 mg/kg/injection, schedule: Q01DX001 (ip), vehicle: Klucel (hydroxypropylcellulose) (HPC)) 100 % of control; (dose: 200.0 mg/kg/injection, schedule: Q01DX001 (ip), vehicle: Klucel (hydroxypropylcellulose) (HPC)) 103 % of control; (dose: 400.0 mg/kg/injection, schedule: Q01DX001 (ip), vehicle: Klucel (hydroxypropylcellulose) (HPC)) 100 % of control.
As for `OCCCN1CNC(=S)NC1`, the T/C runs as follows: (dose: 12.5 mg/kg/injection, schedule: Q01DX009 (ip), vehicle: saline) 106 % of control and 111 % of control; (dose: 25.0 mg/kg/injection, schedule: Q01DX009 (ip), vehicle: saline) 100 % of control and 105 % of control; under setting [4], 100 % of control and 97 % of control; under setting [5], 99 % of control and 102 % of control.
Turning to `CCCCCCCCCCCCCCCCCC(=O)NC[n+]1ccccc1`, the T/C by setting is: (dose: 50.0 mg/kg/injection, schedule: Q04DX002 (ip), vehicle: Klucel (hydroxypropylcellulose) (HPC)) 96 % of control; (dose: 100.0 mg/kg/injection, schedule: Q04DX002 (ip), vehicle: Klucel (hydroxypropylcellulose) (HPC)) 87 % of control; (dose: 200.0 mg/kg/injection, schedule: Q04DX002 (ip), vehicle: Klucel (hydroxypropylcellulose) (HPC)) 91 % of control.
Consider `Cc1ncc2n1-c1ccc(Cl)cc1C(c1ccccc1F)=NC2`, for which the T/C by setting is: under setting [4], 103 % of control; under setting [5], 112 % of control.
Take `O=c1[nH]ccc2sccc12`: the T/C (dose: 50.0 mg/kg/injection, schedule: Q01DX009 (ip), vehicle: saline with Tween-80) is 95 % of control and the T/C (dose: 100.0 mg/kg/injection, schedule: Q01DX009 (ip), vehicle: saline with Tween-80) is 100 % of control.
For `O=S(=O)(NCCSSCCNS(=O)(=O)c1ccccc1)c1ccccc1`, the T/C by setting is: (dose: 25.0 mg/kg/injection, schedule: Q01DX009 (ip), vehicle: other) 96 % of control; (dose: 50.0 mg/kg/injection, schedule: Q01DX009 (ip), vehicle: other) 98 % of control and 105 % of control; (dose: 100.0 mg/kg/injection, schedule: Q01DX009 (ip), vehicle: other) 110 % of control; (dose: 200.0 mg/kg/injection, schedule: Q01DX009 (ip), vehicle: other) 103 % of control and 90 % of control.
As to `COP(=O)(Cc1ccccc1O)OC`, the T/C reads like this: under setting [4], 97 % of control; under setting [5], 99 % of control; (dose: 200.0 mg/kg/injection, schedule: Q01DX009 (ip), vehicle: saline) 96 % of control.

(Values after PubChem BioAssay AID330 (DTP/NCI, 2004).)
